Patent US12178845B2, “Methods and compositions relating to the treatment of tumors” (THE GENERAL HOSPITAL CORPORATION, priority 2016, dated 2024)
Peptide text beside a SMILES is read from it. * marks the point of attachment. Cbz = O=C(OCc1ccccc1)*; CH2F = FC*

Experiments:
ASC in HEI-193 cell line = experiment: Demethylation of ASC CpG island, ASC expression by RT-PCR; format: cell-based, human
Method: The cultured cells were treated with (5azadeoxycytindine 0.5, 1 or 2.5 uM) or not treated (0) for 3 days.
Real-time quantitative PCR analyses. RNA isolation from tissue samples was conducted with TRIzol™ reagent according to the manufacturer's instructions (Qiagen, USA) and transcribed into cDNA using superscript VILO™ cDNA synthesis kit (Invitrogen, USA). Taqman™ real-time PCR was carried out using RealPlex MasterCycler™ (eppendorf, USA). […] Taqman probes were purchased from life technologies, USA.

HEI-193 cells = experiment: In vitro apoptosis staining (TACS 2 TdT-DAB); format: cell-based, human; conditions: HEI-193 transfected with pAAV-CBA-hASC
Method: To determine whether the ASC/TMS1-mediated growth inhibition was the result of caspases induced apoptosis, in vitro apoptosis staining was performed using TACS 2 TdT-DAB In situ Apoptosis Detection kit (Trevigen).
Apoptosis assay. In-vitro DNA fragmentation of apoptotic cells was assessed TACS® 2 TdT-DAB in Situ Apoptosis Detection Kit. In brief, HEI-193 cells on the coated cover glass and transfected with dsAAV-CBA-ASC or dsAAV-CBA-GFP. Fragmented DNA were visualized with diaminobenzidine (DAB) and viewed by light microscope. In-vivo apoptosis study was assessed using the same kit on fresh frozen nerves that were sliced to 15 um thin sections using cryostat and fixed in 3.7% formaldehyde.

08031-9 cells = experiment: In vitro apoptotic body staining; format: cell-based, mouse; conditions: 08031-9 transfected with pAAV-CBA-hASC
[1] = system: HEI-193 human schwannoma cell line; conditions: HEI193 cells transfected with pAAV-CBA-hASC
Method: For all cell types, growth media were supplemented with 10% fetal bovine serum (FBS; Sigma-Aldrich) and 1% penicillin-streptomycin (Cellgro, Herndon, VA) and cells were maintained at 37° C. in a humidified atmosphere of 5% CO2 and 95% air. […] For transfections in 24-well format, 100,000 cells were seeded 24 hours prior to transfection. 1 μl of liofectamine 2000 (Invitrogen, USA) was used for every 500 ng of transfected plasmid in FBS free medium (Optimem, Invitrogen, USA). The DNA/Lipofectamine mix was incubated at room temperature for 30 minutes before spread over the cells and left for 5-6 hours then replaced by fresh medium. The amount of plasmid/lipofectamine was scaled up according to the plate format used.
Cell viability and toxicity assay. The Cell Titer-Glo™ luminescent cell viability assay (Promega, Madison, WI) was used to determine the number of viable cells in culture on the basis of quantitation of ATP levels, an indicator of metabolically active cells. […] The luminescence was measured with a luminometer (Dynex Technologies, Chantilly, VA). Cell death was measured by the LDH assay using CytoTox 96 Non-Radioactive Cytotoxicity Assay kit (Promega) according to the manufacturer's instructions.

Structure (SMILES) | ASC promoter methylation (ASC in HEI-193 cell line) | ASC expression (RT-PCR, normalized to β-actin) (ASC in HEI-193 cell line; 0.5, 1 or 2.5 uM for 3 days, ASC-negative HEI-193) | apoptosis in presence of caspase inhibitor (HEI-193 cells) | apoptosis in presence of caspase inhibitor (HEI-193 cells; listed as ZVADFMK) | apoptosis in presence of caspase inhibitor (HEI-193 cells; listed as pan-caspase inhibitor) | apoptosis in presence of caspase inhibitor (08031-9 cells) | LDH release cytotoxicity in presence of caspase inhibitor [1] | apoptosis in presence of caspase inhibitor (HEI-193 cells; listed as ZDEVDFMK) | apoptosis in presence of caspase inhibitor (HEI-193 cells; listed as caspase-3 inhibitor)
Nc1ncn([C@H]2C[C@H](O)[C@@H](CO)O2)c(=O)n1 [5azadeoxycytidine] | reversible | restores expression |  |  |  |  |  |  | 
COC(=O)C[C@H](NC(=O)[C@H](C)NC(=O)[C@@H](NC(=O)OCc1ccccc1)C(C)C)C(=O)CF [ZVAD-FMK] (Cbz-Val-Ala-Asp(OMe)-CH2F) |  |  | no apoptosis | inhibit | abolished | abolished | inhibited |  | 
COC(=O)CC[C@H](NC(=O)[C@H](CC(=O)OC)NC(=O)OCc1ccccc1)C(=O)N[C@H](C(=O)N[C@@H](CC(=O)OC)C(=O)CF)C(C)C [ZDEVD-FMK] |  |  | no apoptosis |  |  | abolished | inhibited | inhibit | abolished
